Patent US20190292155A1, “THERAPEUTIC INHIBITORY COMPOUNDS” (LifeSci Pharmaceuticals, Inc., priority 2016, published 2019)
pIC50: −log10 of the molar value. Like-named read-outs stand apart in the source and are kept apart here.

Molecular target: T1, human complement factor D (Homo sapiens, UniProt P00746)
T1 construct: purchased R&D Systems 1824-SE
Test: In vitro enzyme inhibition of human complement factor D (Z-Lys-SBzl/DTNB, A405)
Assay type: biochemical
Experimental: The ability of the compounds disclosed herein to inhibit human complement factor D inhibitory activity was quantified according to the 12-step protocol provided below. • 1. Prepare assay buffer: 50 mM Tris/HCl, pH 7.5, 1 M NaCl. • 2. […] Then dilute the serial concentrations of Nafamostat Mesilate 20-fold in assay buffer. • 3. […] 0.5% DMSO was in each well finally. • 4. […] Add 10 μl diluted test compounds duplicated into the 96-well plate. […] 0.5% DMSO was in each well finally. • 6. Dilute 20 mM substrate Z-Lys-SBzl (Bachem, Cat# M-1300) to 200 μM in assay buffer with 200 μM DTNB (Sigma, Catalog# D8130). • 7. […] Add 40 μl diluted Complement Factor D in the 96-well plate. • 8. Positive control well contains Complement Factor D without test compound. Negative control well contains neither Complement Factor D nor test compound. Using assay buffer, bring the total volume of all controls to 50 al. • 9. Pre-incubate the plate for 5 min at room temperature. • 10. Add 50 μl of diluted substrate/DTNB mixture into each well. […] For kinetic reading: Immediately start measuring absorbance (A405 nm) continuously and record data every 30 sec for 60 min. • 12. Data analysis • Inhibition activity of compound was evaluated by IC50. IC50 was calculated according the dose-response curve of compound fitted using GraphPadPrism with “log(inhibitor)-response (variable slope)” equation. • % inhibition was calculated by using following equation:
[formula] • Mean(NC): The average value of the negative control wells' A405 nm values. • Mean(PC): The average value of the positive control wells' A405 nm values.

[1] = biochemical assay, substrate Z-Lys-SBzl, read-out: CFD IC50

T1 sequence (P00746 26-253): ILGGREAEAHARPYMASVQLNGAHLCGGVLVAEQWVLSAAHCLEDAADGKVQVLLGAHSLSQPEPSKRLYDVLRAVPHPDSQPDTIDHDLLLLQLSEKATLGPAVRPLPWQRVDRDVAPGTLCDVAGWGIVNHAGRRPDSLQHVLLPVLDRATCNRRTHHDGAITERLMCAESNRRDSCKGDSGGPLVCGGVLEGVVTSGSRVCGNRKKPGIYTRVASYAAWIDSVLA

| pIC50 [1] | SMILES | pIC50 |
| --- | --- | --- |
| 6.00 to 7.00 | CC(N(CC(=O)NCc1cccc(Cl)c1F)C(=O)Cn1nc(C(N)=O)c2ccccc21)C(C)(C)C (centres unmarked) [Example 64, 1-(2-((2-((3-chloro-2-fluorobenzyl)amino)-2-oxoethyl)(3,3-dimethylbutan-2-yl)amino)-2-oxoethyl)-1H-indazole-3-carboxamide] | – |
| 6.00 to 7.00 | CC(c1ccccc1)N(CC(=O)NCc1cccc(Cl)c1F)C(=O)Cn1nc(C(N)=O)c2ccccc21 (centres unmarked) [Example 65, 1-(2-((2-((3-chloro-2-fluorobenzyl)amino)-2-oxoethyl)(1-phenylethyl)amino)-2-oxoethyl)-1H-indazole-3-carboxamide] | – |
| 6.00 to 7.00 | CC(CF)N(CC(=O)NCc1cccc(Cl)c1F)C(=O)Cn1nc(C(N)=O)c2ccccc21 (centres unmarked) [Example 66, 1-(2-((2-((3-chloro-2-fluorobenzyl)amino)-2-oxoethyl)(1-fluoropropan-2-yl)amino)-2-oxoethyl)-1H-indazole-3-carboxamide] | – |
| 6.00 to 7.00 | CC(N(CC(=O)NCc1cccc(Cl)c1F)C(=O)Cn1nc(C(N)=O)c2ccccc21)C(F)(F)F (centres unmarked) [Example 67, 1-(2-((2-((3-chloro-2-fluorobenzyl)amino)-2-oxoethyl)(1,1,1-trifluoropropan-2-yl)amino)-2-oxoethyl)-1H-indazole-3-carboxamide] | – |
| 6.00 to 7.00 | COCC(C)N(CC(=O)NCc1cccc(Cl)c1F)C(=O)Cn1nc(C(N)=O)c2ccccc21 (centres unmarked) [Example 68, 1-(2-((2-((3-chloro-2-fluorobenzyl)amino)-2-oxoethyl)(1-methoxypropan-2-yl)amino)-2-oxoethyl)-1H-indazole-3-carboxamide] | – |
| 5.00 to 6.00 | NC(=O)c1nn(CC(=O)N(CC(=O)NCc2cccc(Cl)c2F)C(CO)C2CC2)c2ccccc12 (centres unmarked) [Example 69, 1-(2-((2-((3-chloro-2-fluorobenzyl)amino)-2-oxoethyl)(1-cyclopropyl-2-hydroxyethyl)amino)-2-oxoethyl)-1H-indazole-3-carboxamide] | – |
| 6.00 to 7.00 | CCOC(=O)CC(C)N(CC(=O)NCc1cccc(Cl)c1F)C(=O)Cn1nc(C(N)=O)c2ccccc21 (centres unmarked) [Example 72, ethyl 3-(2-(3-carbamoyl-1H-indazol-1-yl)-N-(2-((3-chloro-2-fluorobenzyl)amino)-2-oxoethyl)acetamido)butanoate] | – |
| 5.00 to 6.00 | NC(=O)c1nn(CC(=O)N(CC(=O)NCc2cccc(Cl)c2F)C(CCO)C2CC2)c2ccccc12 (centres unmarked) [Example 73, 1-(2-((2-((3-chloro-2-fluorobenzyl)amino)-2-oxoethyl)(1-cyclopropyl-3-hydroxypropyl)amino)-2-oxoethyl)-1H-indazole-3-carboxamide] | – |

Further lines, the compound ahead of its results:

| SMILES | pIC50 [1] | pIC50 |
| --- | --- | --- |
| NC(=O)c1cc(C(=O)O)n(CC(=O)N(CC(=O)NCc2cccc(Cl)c2F)C2CC2)n1 [Example 44, 3-carbamoyl-1-(2-((2-((3-chloro-2-fluorobenzyl)amino)-2-oxoethyl)(cyclopropyl)amino)-2-oxoethyl)-1H-pyrazole-5-carboxylic acid] | 5.00 to 6.00 | – |
| NC(=O)c1cc(C(N)=O)n(CC(=O)N(CC(=O)NCc2cccc(Cl)c2F)C2CC2)n1 [Example 45, 1-(2-((2-((3-chloro-2-fluorobenzyl)amino)-2-oxoethyl)(cyclopropyl)amino)-2-oxoethyl)-1H-pyrazole-3,5-dicarboxamide] | 5.00 to 6.00 | – |
| NC(=O)c1nn(CC(=O)N(CC(=O)NCc2cccc(Cl)c2F)C2CC2)cc1Br [Example 46, 4-bromo-1-(2-((2-((3-chloro-2-fluorobenzyl)amino)-2-oxoethyl)(cyclopropyl)amino)-2-oxoethyl)-1H-pyrazole-3-carboxamide] | 5.00 to 6.00 | – |
| CC(=O)c1nc(CC(=O)N(CC(=O)NCc2cccc(Cl)c2F)C2CC2)n2ccccc12 [Example 48, 2-(1-acetylimidazo[1,5-a]pyridin-3-yl)-N-(2-((3-chloro-2-fluorobenzyl)amino)-2-oxoethyl)-N-cyclopropylacetamide] | 6.00 to 7.00 | – |
| CC(O)c1nn(CC(=O)N(CC(=O)NCc2cccc(Cl)c2F)C2CC2)c2ccccc12 (centres unmarked) [Example 49, N-(2-((3-chloro-2-fluorobenzyl)amino)-2-oxoethyl)-N-cyclopropyl-2-(3-(1-hydroxyethyl)-1H-indazol-1-yl)acetamide] | 5.00 to 6.00 | – |
| NC(=O)n1cc(NC(=O)N(CC(=O)NCc2cccc(Cl)c2F)C2CC2)c2ccccc21 [Example 51, 3-(3-(2-((3-chloro-2-fluorobenzyl)amino)-2-oxoethyl)-3-cyclopropylureido)-1H-indole-1-carboxamide] | 6.00 to 7.00 | – |
| NC(=O)n1cc(NC(=O)N(CC(=O)NCc2cccc(Cl)c2F)C2CCNC2)c2ccccc21 (centres unmarked) [Example 52, 3-(3-(2-((3-chloro-2-fluorobenzyl)amino)-2-oxoethyl)-3-(pyrrolidin-3-yl)ureido)-1H-indole-1-carboxamide] | 6.00 to 7.00 | – |
| CC(C)C(C)N(CC(=O)NCc1cccc(Cl)c1F)C(=O)Cn1nc(C(N)=O)c2ccccc21 (centres unmarked) [Example 54, 1-(2-((2-((3-chloro-2-fluorobenzyl)amino)-2-oxoethyl)(3-methylbutan-2-yl)amino)-2-oxoethyl)-1H-indazole-3-carboxamide] | – | 6.00 to 7.00 |
| CC(CCO)N(CC(=O)NCc1cccc(Cl)c1F)C(=O)Cn1nc(C(N)=O)c2ccccc21 (centres unmarked) [Example 57, 1-(2-((2-((3-chloro-2-fluorobenzyl)amino)-2-oxoethyl)(4-hydroxybutan-2-yl)amino)-2-oxoethyl)-1H-indazole-3-carboxamide] | – | 6.00 to 7.00 |
| CC(CO)N(CC(=O)NCc1cccc(Cl)c1F)C(=O)Cn1nc(C(N)=O)c2ccccc21 (centres unmarked) [Example 58, 1-(2-((2-((3-chloro-2-fluorobenzyl)amino)-2-oxoethyl)(1-hydroxypropan-2-yl)amino)-2-oxoethyl)-1H-indazole-3-carboxamide] | – | 6.00 to 7.00 |
| COC(=O)C(C)N(CC(=O)NCc1cccc(Cl)c1F)C(=O)Cn1nc(C(N)=O)c2ccccc21 (centres unmarked) [Example 59, methyl 2-(2-(3-carbamoyl-1H-indazol-1-yl)-N-(2-((3-chloro-2-fluorobenzyl)amino)-2-oxoethyl)acetamido)propanoate] | 5.00 to 6.00 | – |
| CC(CCF)N(CC(=O)NCc1cccc(Cl)c1F)C(=O)Cn1nc(C(N)=O)c2ccccc21 (centres unmarked) [Example 60, 1-(2-((2-((3-chloro-2-fluorobenzyl)amino)-2-oxoethyl)(4-fluorobutan-2-yl)amino)-2-oxoethyl)-1H-indazole-3-carboxamide] | 6.00 to 7.00 | – |
| CCC(COC)N(CC(=O)NCc1cccc(Cl)c1F)C(=O)Cn1nc(C(N)=O)c2ccccc21 (centres unmarked) [Example 61, 1-(2-((2-((3-chloro-2-fluorobenzyl)amino)-2-oxoethyl)(1-methoxybutan-2-yl)amino)-2-oxoethyl)-1H-indazole-3-carboxamide] | 5.00 to 6.00 | – |
| CC(C(N)=O)N(CC(=O)NCc1cccc(Cl)c1F)C(=O)Cn1nc(C(N)=O)c2ccccc21 (centres unmarked) [Example 62, 1-(2-((1-amino-1-oxopropan-2-yl)(2-((3-chloro-2-fluorobenzyl)amino)-2-oxoethyl)amino)-2-oxoethyl)-1H-indazole-3-carboxamide] | 5.00 to 6.00 | – |
| CC1CC1N(CC(=O)NCc1cccc(Cl)c1F)C(=O)Cn1nc(C(N)=O)c2ccccc21 (centres unmarked) [Example 63, 1-(2-((2-((3-chloro-2-fluorobenzyl)amino)-2-oxoethyl)(2-methylcyclopropyl)amino)-2-oxoethyl)-1H-indazole-3-carboxamide] | 6.00 to 7.00 | – |
